Measurements reported in ChEMBL document CHEMBL1201862, “PubChem BioAssay data set” (2004).
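Dose response: 5 concentrations. Exposure: 48 h. Format: 96-well plates. Endpoint: linear interpolation; highest concentration if not reached. GI50 marks 50% less growth.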 Calls of active or inactive are those of the source. No stated cut-off is given here; in the data, active = GI50 up to about 1.1 µM and inactive = higher. *1 amine or outer side, *2 acyl side, *3 side chain or, on linkers, in order; H or OH if unused. Where a SMILES comes first, the peptide text is derived from it. Bridges are numbered along the chain shown (N, C = ends). Roman numbers before positions name the chains, in order. [ ]: non-standard residue; d: D form. Actinocin(9to1) = Cc1c2oc3c(C)ccc(C(=O)[*:1])c3nc-2c(C(=O)[*:2])c(N)c1=O; Hyp = O=C(O)[CH]1C[CH](O)CN1; NMeV = CN[CH](C(=O)O)C(C)C; Sar = CNCC(=O)O

Experiments:
Assay in all cases: NCI anticancer screen, dose series, 48 h
[1] = tested on: COLO 205
[2] = tested on: EKVX
[3] = tested on: UACC-257
[4] = tested on: SR
[5] = tested on: OVCAR-4
[6] = tested on: SNB-75
[7] = tested on: PC-3
[8] = tested on: K562
[9] = tested on: Hs-578T
[10] = tested on: NCI-H460
[11] = tested on: HCC 2998
[12] = tested on: HT-29
[13] = tested on: RPMI-8226
[14] = tested on: M14
[15] = tested on: KM12
[16] = tested on: OVCAR-5
[17] = tested on: SF-539
[18] = tested on: CAKI-1
[19] = tested on: SK-MEL-5
[20] = tested on: MDA-N

## CNC1=C/C(=N/C2=CC(=N/C(=C\C#N)C(C)(C)O)/OC2(C)C)OC1(C)C
[1]
  GI50: 6.56 µM (inactive)
[2]
  GI50: 13.7 µM (inactive)
[3]
  GI50: 43.3 µM (inactive)
[4]
  GI50: 4.9 µM (inactive)
[5]
  GI50: 27.2 µM (inactive)
[6]
  GI50: 6.76 µM (inactive)
[7]
  GI50: 13.2 µM (inactive)
[8]
  GI50: 3.12 µM (inactive)
[9]
  GI50: 35.1 µM (inactive)
[10]
  GI50: 5.97 µM (inactive)
[11]
  GI50: 29.2 µM (inactive)
[12]
  GI50: 11.4 µM (inactive)
[13]
  GI50: 4.43 µM (inactive)
[14]
  GI50: 11.8 µM (inactive)
[15]
  GI50: 13.5 µM (inactive)
[16]
  GI50: 60.4 µM (inactive)
[17]
  GI50: 33.1 µM (inactive)
[18]
  GI50: 7.82 µM (inactive)
[19]
  GI50: 14.9 µM (inactive)
[20]
  GI50: 21.3 µM (inactive)

## O=c1[nH]c2cc3cccnc3c(Cl)c2nc1C(F)(F)F
[1]
  GI50: 36.4 µM (inactive)
[2]
  GI50: 9.91 µM (inactive)
[3]
  GI50: 27.1 µM (inactive)
[4]
  GI50: 28.2 µM (inactive)
[5]
  GI50: 21.8 µM (inactive)
[6]
  GI50: 27.5 µM (inactive)
[7]
  GI50: 52 µM (inactive)
[8]
  GI50: 29.7 µM (inactive)
[9]
  GI50: 58.1 µM (inactive)
[10]
  GI50: 27.5 µM (inactive)
[11]
  GI50: 42 µM (inactive)
[12]
  GI50: 51.3 µM (inactive)
[13]
  GI50: 26.5 µM (inactive)
[14]
  GI50: 28.8 µM (inactive)
[15]
  GI50: 21 µM (inactive)
[16]
  GI50: > 100 µM (inactive)
[17]
  GI50: 40.6 µM (inactive)
[18]
  GI50: 21.2 µM (inactive)
[19]
  GI50: 14.5 µM (inactive)
[20]
  GI50: 37.2 µM (inactive)

## CCC(C)N1CN(c2ccccc2)C2(CCN(CCCC3(c4ccc(F)cc4)OCCO3)CC2)C1=O (stereo not given)
[1]
  GI50: 3.75 µM (inactive)
[2]
  GI50: 6.14 µM (inactive)
[3]
  GI50: 1.98 µM (inactive)
[4]
  GI50: 6.34 µM (inactive)
[5]
  GI50: 22.6 µM (inactive)
[6]
  GI50: 6.05 µM (inactive)
[7]
  GI50: 6.05 µM (inactive)
[8]
  GI50: 8.24 µM (inactive)
[9]
  GI50: 6.15 µM (inactive)
[10]
  GI50: 14.8 µM (inactive)
[11]
  GI50: 12.9 µM (inactive)
[12]
  GI50: 2.87 µM (inactive)
[13]
  GI50: 1.89 µM (inactive)
[14]
  GI50: 5.97 µM (inactive)
[15]
  GI50: 20.6 µM (inactive)
[16]
  GI50: 8.61 µM (inactive)
[17]
  GI50: 5.5 µM (inactive)
[18]
  GI50: > 52 µM (inactive)
[19]
  GI50: 3.88 µM (inactive)
[20]
  GI50: 7.14 µM (inactive)

## CC(C)CSCC1OC(n2cnc3c(N)nccc32)C(O)C1O (stereo not given)
[1]
  GI50: > 86.1 µM (inactive)
[2]
  GI50: 89.5 µM (inactive)
[3]
  GI50: > 85.3 µM (inactive)
[4]
  GI50: > 100 µM (inactive)
[5]
  GI50: > 100 µM (inactive)
[6]
  GI50: > 100 µM (inactive)
[7]
  GI50: > 100 µM (inactive)
[8]
  GI50: > 75 µM (inactive)
[9]
  GI50: > 72.1 µM (inactive)
[10]
  GI50: > 100 µM (inactive)
[11]
  GI50: 27.9 µM (inactive)
[12]
  GI50: > 100 µM (inactive)
[13]
  GI50: > 67 µM (inactive)
[14]
  GI50: > 100 µM (inactive)
[15]
  GI50: > 100 µM (inactive)
[16]
  GI50: > 100 µM (inactive)
[17]
  GI50: > 100 µM (inactive)
[18]
  GI50: > 100 µM (inactive)
[19]
  GI50: 43.8 µM (inactive)
[20]
  GI50: > 100 µM (inactive)

## Cc1c2oc3c(C)ccc(C(=O)NC4C(=O)NC(C(C)C)C(=O)N5CC(O)CC5C(=O)N(C)CC(=O)N(C)C(C(C)C)C(=O)OC4C)c3nc-2c(C(=O)NC2C(=O)NC(C(C)C)C(=O)N3CC(O)CC3C(=O)N(C)CC(=O)N(C)C(C(C)C)C(=O)OC2C)c(N)c1=O (stereo not given) (I: TV[Hyp][Sar][NMeV] / II: TV[Hyp][Sar][NMeV]; ester I:1-I:C, II:1-II:C; linker I:N-II:N via Actinocin(9to1); configuration not given here)
[1]
  GI50: > 1 µM (active)
[2]
  GI50: > 1 µM (active)
[3]
  GI50: > 1 µM (active)
[4]
  GI50: 0.748 µM (active)
[5]
  GI50: > 1 µM (active)
[6]
  GI50: > 1 µM (active)
[7]
  GI50: > 1 µM (active)
[8]
  GI50: > 1 µM (active)
[9]
  GI50: > 1 µM (active)
[10]
  GI50: > 1 µM (active)
[11]
  GI50: > 1 µM (active)
[12]
  GI50: > 1 µM (active)
[13]
  GI50: > 1 µM (active)
[14]
  GI50: > 1 µM (active)
[15]
  GI50: > 1 µM (active)
[16]
  GI50: > 1 µM (active)
[17]
  GI50: > 1 µM (active)
[18]
  GI50: > 1 µM (active)
[19]
  GI50: > 1 µM (active)
[20]
  GI50: > 1 µM (active)
